Source: PubChem BioAssay AID1963832 (Molecular Pharmacology Branch, DTP, NCI, 2024)

System: 885724-159-R-J1-PDC complex spheroid viability
Test: Anticancer human tumor 885724-159-R-J1-PDC patient-derived pancreatic adenocarcinoma cell line growth inhibition [POLQ]
Conditions: for IC50: curve of first compound; for viability, T/C: stronger effect = lower value
Experimental: Multicellular complex tumor spheroid response to Polymerase (POL) inhibitors (novobiocin, ART-558, RP6685) in combination with a variety of drugs and investigational agents in selected tumor cell lines
The POL inhibitors (novobiocin, ART-558, and RP6685) were evaluated both individually and in combination with standard of care and investigational anticancer small molecules within a complex spheroid model of solid tumors. . Complex spheroids include a stromal component modeled by human endothelial cells (HUVEC) and fibroblasts modeled by human mesenchymal stem cells (MSCs). The concentration ranges selected for each drug and investigational agent were based upon clinically achievable concentrations if the clinical Cmax of the agent was known.
Compounds. The drugs and investigational agents: novobiocin (NSC847541), ART-558 (NSC835418), RP-6685 (NSC848927), peposertib (NSC802822), ceralasertib (NSC780249), elimusertib (NSC800525), camonsertib (NSC841442), AZD-1390 (NSC803789), olaparib (NSC753686), talazoparib (NSC767125), rucaparib (NSC756644), sotorasib (NSC818433), MRTX-1133 (NSC836407), SN-38 (NSC673596), topotecan (NSC609699), epotoside (NSC141540), doxorubicin (NSC123127), gemcitabine (NSC613327), 5-fluorouracil (NSC19893), paclitaxel (NSC125973), vemurafenib (NSC761431), MSA-2 (NSC828583), SN-011 (NSC837082), adavosertib (NSC754352), prexasertib (NSC758257), carboplatin (NSC241240) and oxaliplatin (NSC266046), were obtained from the National Cancer Institute (NCI) Developmental Therapeutics Program Chemical Repository (21). The FDA-approved anticancer drug set is available from the Developmental Therapeutics Program at https://dtp.cancer.gov/organization/dscb/obtaining/. […] The stock solutions were prepared in dimethyl sulfoxide (DMSO, Sigma-Aldrich, St. Louis, MO, cat. D2650), except for the platinum compounds which were prepared in saline (Quality Biological, Gaithersburg, MD, cat. 114-055-101), at 800-fold the tested concentration and stored at -70 degrees C prior to their use. All drugs and investigational agents were tested over a range starting from a high concentration at or near the clinical Cmax and decreasing in half-log increments. If the clinical Cmax for an agent had not been determined, the highest concentration tested was 10 microM, except for SN-38, which was tested at a high concentration of 1 microM.
Cell Culture. All cells were maintained in an incubator at 37 degrees C and 5% CO2 with 95% humidity. The PDC lines were cultured according to standard operating procedures established by the NCI PDMR (https://pdmr.cancer.gov). Table 3 of the manuscript, lists the cell lines along with the number of the three cell types plated to form the mct-spheroids and media for tumor cell growth. After thawing, all PDC lines, except 997537-175-T-J1-PDC and 415267-285-R-J2-PDC, were cultured in Matrigel-coated flasks prepared with a working solution of 1X Ham's F-12 nutrient mix, without supplementation (Thermo Fisher Scientific, cat. 11765054), 100 U/mL penicillin-streptomycin (Thermo Fisher Scientific, cat. 15140122), and 2.5% Matrigel (Corning Inc., Corning, NY, cat. 354248) for the first three passages. The two PDC lines 997537-175-T-J1-PDC and 415267-285-R-J2-PDC were cultured on uncoated flasks. The 857933-349-R-J2-PDC line was cultured in 6C/Colon 1B media containing advanced DMEM/F-12 (Thermo Fisher Scientific, cat. 12634028), 10 mM HEPES (Thermo Fisher Scientific, cat. 15630080), 1X GlutaMAX supplement (Thermo Fisher Scientific, cat. 35050061), 0.1 mg/mL primocin (InvivoGen, San Diego, CA, cat. ant-pm-2), 10% defined fetal bovine serum, heat inactivated (HyClone Laboratories Inc., Logan, UT, cat. SH30070.03HI), 50% L-WRN conditioned media (ATCC, cat. CRL-3276), 1.25 mM N-Acetyl-L-cysteine (Sigma-Aldrich, cat. A9165), 10 mM nicotinamide (Sigma-Aldrich, cat. N0636), 1X B-27 supplement (Thermo Fisher Scientific, cat. 17504044), 1X N-2 supplement (Thermo Fisher Scientific, cat. […]

[1] = second compound 0.0316 µM, first compound 0.0316 µM
[2] = second compound 0.0316 µM, first compound 0.1 µM
[3] = second compound 0.1 µM, first compound 0.0316 µM
[4] = second compound 0.1 µM, first compound 0.1 µM
[5] = second compound 0.316 µM, first compound 0.0316 µM
[6] = second compound 0.316 µM, first compound 0.1 µM
[7] = second compound 1 µM, first compound 0.0316 µM
[8] = second compound 1 µM, first compound 0.1 µM
[9] = second compound 3.16 µM, first compound 0.0316 µM
[10] = second compound 3.16 µM, first compound 0.1 µM
[11] = second compound 10 µM, first compound 0.0316 µM
[12] = second compound 10 µM, first compound 0.1 µM
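Further: spheroids exposed to compounds for 7 days.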

Cn1ncnc1[C@H]1c2n[nH]c(=O)c3cc(F)cc(c23)N[C@@H]1c1ccc(F)cc1 + COC1C(OC(N)=O)C(O)C(Oc2ccc3c(O)c(NC(=O)c4ccc(O)c(CC=C(C)C)c4)c(=O)oc3c2C)OC1(C)C
IC50 (second compound 0.0316 µM): > 100 nM
IC50 (second compound 0.1 µM): > 100 nM
IC50 (second compound 0.316 µM): > 100 nM
IC50 (second compound 1 µM): > 100 nM
IC50 (second compound 3.16 µM): > 100 nM
IC50 (second compound 10 µM): > 100 nM
viability, T/C (second compound 0.0316 µM, first compound 0.000316 µM): 91.2%
viability, T/C (second compound 0.0316 µM, first compound 0.001 µM): 103%
viability, T/C (second compound 0.0316 µM, first compound 0.00316 µM): 92.2%
viability, T/C (second compound 0.0316 µM, first compound 0.01 µM): 94.9%
viability, T/C [1]: 87%
viability, T/C [2]: 72.1%
viability, T/C (second compound 0.1 µM, first compound 0.000316 µM): 101%
viability, T/C (second compound 0.1 µM, first compound 0.001 µM): 95.3%
viability, T/C (second compound 0.1 µM, first compound 0.00316 µM): 94.5%
viability, T/C (second compound 0.1 µM, first compound 0.01 µM): 93.6%
viability, T/C [3]: 89.8%
viability, T/C [4]: 82.8%
viability, T/C (second compound 0.316 µM, first compound 0.000316 µM): 113%
viability, T/C (second compound 0.316 µM, first compound 0.001 µM): 92%
viability, T/C (second compound 0.316 µM, first compound 0.00316 µM): 95.6%
viability, T/C (second compound 0.316 µM, first compound 0.01 µM): 95.4%
viability, T/C [5]: 89.4%
viability, T/C [6]: 78.7%
viability, T/C (second compound 1 µM, first compound 0.000316 µM): 105%
viability, T/C (second compound 1 µM, first compound 0.001 µM): 86.6%
viability, T/C (second compound 1 µM, first compound 0.00316 µM): 95.7%
viability, T/C (second compound 1 µM, first compound 0.01 µM): 85%
viability, T/C [7]: 83.6%
viability, T/C [8]: 77%
viability, T/C (second compound 3.16 µM, first compound 0.000316 µM): 105%
viability, T/C (second compound 3.16 µM, first compound 0.001 µM): 87.5%
viability, T/C (second compound 3.16 µM, first compound 0.00316 µM): 90.2%
viability, T/C (second compound 3.16 µM, first compound 0.01 µM): 98.5%
viability, T/C [9]: 93.7%
viability, T/C [10]: 75.7%
viability, T/C (second compound 10 µM, first compound 0.000316 µM): 95.1%
viability, T/C (second compound 10 µM, first compound 0.001 µM): 97.4%
viability, T/C (second compound 10 µM, first compound 0.00316 µM): 85%
viability, T/C (second compound 10 µM, first compound 0.01 µM): 90.5%
viability, T/C [11]: 88.4%
viability, T/C [12]: 75.3%

COc1cccc2c1C(=O)c1c(O)c3c(c(O)c1C2=O)CC(O)(C(=O)CO)CC3OC1CC(N)C(O)C(C)O1 (centres undefined) + Cc1cccc(N(C)C(=O)C2C(O)CCN2c2nc(C)cc(C(F)(F)F)c2C#N)c1
IC50 (second compound 0.0316 µM): 142 nM
IC50 (second compound 0.1 µM): 140 nM
IC50 (second compound 0.316 µM): 139 nM
IC50 (second compound 1 µM): 112 nM
IC50 (second compound 3.16 µM): 117 nM
IC50 (second compound 10 µM): 124 nM
viability, T/C [1]: 72.8%
viability, T/C [2]: 57.1%
viability, T/C (second compound 0.0316 µM, first compound 0.316 µM): 32.5%
viability, T/C (second compound 0.0316 µM, first compound 1 µM): 11.3%
viability, T/C (second compound 0.0316 µM, first compound 3.16 µM): 5.41%
viability, T/C (second compound 0.0316 µM, first compound 10 µM): 6.51%
viability, T/C [3]: 67.6%
viability, T/C [4]: 55.5%
viability, T/C (second compound 0.1 µM, first compound 0.316 µM): 34.5%
viability, T/C (second compound 0.1 µM, first compound 1 µM): 11.9%
viability, T/C (second compound 0.1 µM, first compound 3.16 µM): 5.56%
viability, T/C (second compound 0.1 µM, first compound 10 µM): 8.59%
viability, T/C [5]: 80.8%
viability, T/C [6]: 57.1%
viability, T/C (second compound 0.316 µM, first compound 0.316 µM): 31%
viability, T/C (second compound 0.316 µM, first compound 1 µM): 8.3%
viability, T/C (second compound 0.316 µM, first compound 3.16 µM): 5.71%
viability, T/C (second compound 0.316 µM, first compound 10 µM): 9.04%
viability, T/C [7]: 75.3%
viability, T/C [8]: 51%
viability, T/C (second compound 1 µM, first compound 0.316 µM): 30.4%
viability, T/C (second compound 1 µM, first compound 1 µM): 10.5%
viability, T/C (second compound 1 µM, first compound 3.16 µM): 5.49%
viability, T/C (second compound 1 µM, first compound 10 µM): 6.59%
viability, T/C [9]: 75.5%
viability, T/C [10]: 51.7%
viability, T/C (second compound 3.16 µM, first compound 0.316 µM): 30.3%
viability, T/C (second compound 3.16 µM, first compound 1 µM): 5.5%
viability, T/C (second compound 3.16 µM, first compound 3.16 µM): 6.53%
viability, T/C (second compound 3.16 µM, first compound 10 µM): 6.91%
viability, T/C [11]: 72.7%
viability, T/C [12]: 55.6%
viability, T/C (second compound 10 µM, first compound 0.316 µM): 22.9%
viability, T/C (second compound 10 µM, first compound 1 µM): 2.58%
viability, T/C (second compound 10 µM, first compound 3.16 µM): 4.96%
viability, T/C (second compound 10 µM, first compound 10 µM): 6.82%
